What is called pIC50 is the negative decadic logarithm of the IC50, by convention in mol/L. Higher therefore signals a low IC50.

pIC50: −log10 of the molar value. Bounds are passed on as bounds.

This is an account of results in patent US20240246934A1, “QUINAZOLINE-BASED COMPOUND, COMPOSITION, AND APPLICATION OF QUINAZOLINE-BASED COMPOUND” (BEIJING SCITECH-MQ PHARMACEUTICALS LIMITED, priority 2021, published 2024).

In one assay the target is EGFR^WT kinase (Homo sapiens, UniProt P00533). The assay can be described thus: EGFR^WT kinase assay (ULight/PT66 TR-FRET). The assay is classed as biochemical. How it is done:
(§1) Preparation of compound solution: The assay compound was dissolved in DMSO to form a 10 mM stock solution. Prior to use, the compound was diluted to 0.25 mM in DMSO (100 times the final concentration of the diluent) and then subjected to a 3-fold concentration gradient dilution to obtain a total of 11 concentrations. The solution was diluted with buffer to a diluent with 4× the final concentration when the compound was added.
(§2) EGFR^WT kinase assay: buffer was prepared, and 3.48 nM 4×EGFR kinase solution, 600 μM 4×ATP solution, and 400 nM 4×ULight™-labeled JAK-1 (Try1023) Peptide substrate solution were prepared using the buffer. After the preparation was completed, the enzyme was mixed with different concentrations of compounds pre-prepared by dilution, and the mixture was left to stand at room temperature for 5 min. Each concentration was performed in duplicate. The corresponding substrate and ATP were added and the mixture was reacted at room temperature for 120 minutes (with negative and positive controls). After completion of the reaction, PT66 detection antibody was added. The mixture was incubated at room temperature for 60 minutes, and then detected by Envision.
(§3) Compound concentrations and corresponding inhibition rates were input into GraphPad Prism for processing to calculate IC50 values.

A further assay concerns the target T1, HER2 kinase (Homo sapiens, UniProt P04626).
T1 construct: purchased Carna Biosciences 08-016
The assay is described as follows: HER2 kinase assay (ULight/PT66 TR-FRET). The assay is classed as biochemical. How it is done: as §1
as §2, with “HER2” for “EGFR^WT”, “40” for “3.48”, “4×Her2” for “4×EGFR”, “40” for “600”, “Ploy GT” for “JAK-1 (Try1023)”
as §3
(Time-resolved FRET reads energy transfer from a long-lived donor to a nearby acceptor.)

Assay [1] has as its target Ba/F3 HER2 A775_G776insYVMA cells (Homo sapiens, UniProt P04626, DUP772-775, cells depend on it). The assay is described as follows: Inhibition of cell proliferation, CTG method, Ba/F3 HER2 A775_G776insYVMA. The assay is classed as cell-based. The conditions noted are these: 72 hours, read-out: Ba/F3 HER2 A775-G776insYVMA IC50. An excerpt: The present application examined the in vitro anti-proliferative activity of the compounds of the present disclosure against in vitro cultured BT474, NCI-N87, Ba/F3-EGFR-VIII and Ba/F3 HER2 A775_G776insYVMA and Ba/F3 EGFR D770_N771insSVD cell lines by CTG method.
Cell lines: BT474 (from the cell bank of Chinese Academy of Sciences), NCI-N87 (from ATCC), Ba/F3-EGFR-VIII, Ba/F3 HER2 A775_G776insYVMA and Ba/F3 EGFR D770_N771insSVD (all from KYinno Biotechnology (Beijing) Co., Ltd.); all of the above cells were cultured with RPMI1640 medium containing 10% fetal bovine serum, 100 U/mL penicillin, and 100 μg/mL streptomycin in the culture process.
1. The assay compound was dissolved with DMSO to form a stock solution and a gradient dilution was performed, followed by dilution with the corresponding medium to obtain a solution with 5-fold working concentration.
2. Cells in logarithmic growth phase were adjusted to specific cell densities by dilution with culture medium, and 80 μL of cell suspension was added to a 96-well plate, such that plating densities of cells of BT474, NCI-N87, Ba/F3-EGFR-VIII, Ba/F3 HER2 A775_G776insYVMA and Ba/F3 EGFR D770_N771insSVD were all 3000 cells/well. The cells of Ba/F3-EGFR-VIII, Ba/F3 HER2 A775_G776insYVMA and Ba/F3 EGFR D770_N771insSVD were used directly in the next step (treatment with compound), whereas the BT474 and NCI-N87 needed to be cultured overnight in a 37° C., 5% carbon dioxide gas incubator to adhere to the wall, and then treated with compounds.
3. […] The highest concentration of the assayed compound was 10 μM, 4-fold serial dilution, a total of 9 concentrations, and duplicate wells. A control group without compound was also set up.
4. The cells were cultured for another 72 hours, and then cell viability was detected by CTG assay kit. Signal values were read with a multifunctional plate reader (Perkin Elmer). GraphPad Prism software was used to create a dose-response curve and IC50 was calculated.

Chain of Ba/F3 HER2 A775_G776insYVMA cells (P04626 with tags, fused parts or gaps DUP772-775): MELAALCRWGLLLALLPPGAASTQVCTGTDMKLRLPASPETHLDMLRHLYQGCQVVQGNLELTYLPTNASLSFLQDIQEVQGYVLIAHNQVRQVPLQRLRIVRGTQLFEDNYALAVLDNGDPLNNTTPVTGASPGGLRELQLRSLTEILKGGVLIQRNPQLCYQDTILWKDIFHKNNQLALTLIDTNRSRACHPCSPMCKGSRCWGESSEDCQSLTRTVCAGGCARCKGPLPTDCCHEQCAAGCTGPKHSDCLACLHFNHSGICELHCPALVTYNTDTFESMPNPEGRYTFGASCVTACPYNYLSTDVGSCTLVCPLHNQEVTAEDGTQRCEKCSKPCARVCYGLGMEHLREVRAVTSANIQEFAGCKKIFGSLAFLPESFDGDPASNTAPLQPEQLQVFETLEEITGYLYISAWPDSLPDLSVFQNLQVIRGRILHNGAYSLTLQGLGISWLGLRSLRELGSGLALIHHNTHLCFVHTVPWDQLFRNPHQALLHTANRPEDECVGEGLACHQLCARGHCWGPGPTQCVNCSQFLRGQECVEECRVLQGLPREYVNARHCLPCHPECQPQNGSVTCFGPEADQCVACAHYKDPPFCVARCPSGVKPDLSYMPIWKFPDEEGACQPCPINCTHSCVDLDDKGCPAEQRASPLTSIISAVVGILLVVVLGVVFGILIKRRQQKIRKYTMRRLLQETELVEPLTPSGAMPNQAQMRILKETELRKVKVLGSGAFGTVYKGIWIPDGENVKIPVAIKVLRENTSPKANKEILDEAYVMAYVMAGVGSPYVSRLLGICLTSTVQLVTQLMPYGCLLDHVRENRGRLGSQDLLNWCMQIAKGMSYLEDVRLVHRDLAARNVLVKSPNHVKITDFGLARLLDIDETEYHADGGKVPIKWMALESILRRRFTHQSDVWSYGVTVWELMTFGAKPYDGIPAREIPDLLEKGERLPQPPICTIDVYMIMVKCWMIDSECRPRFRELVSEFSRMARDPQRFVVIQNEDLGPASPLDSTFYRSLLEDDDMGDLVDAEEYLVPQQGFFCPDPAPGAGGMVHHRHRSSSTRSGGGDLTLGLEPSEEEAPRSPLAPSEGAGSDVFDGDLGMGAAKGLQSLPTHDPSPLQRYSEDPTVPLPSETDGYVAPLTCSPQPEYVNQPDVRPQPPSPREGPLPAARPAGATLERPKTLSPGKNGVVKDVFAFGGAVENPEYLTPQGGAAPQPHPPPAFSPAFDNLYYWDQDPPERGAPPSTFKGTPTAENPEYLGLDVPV
T1 sequence (P04626 23-1255): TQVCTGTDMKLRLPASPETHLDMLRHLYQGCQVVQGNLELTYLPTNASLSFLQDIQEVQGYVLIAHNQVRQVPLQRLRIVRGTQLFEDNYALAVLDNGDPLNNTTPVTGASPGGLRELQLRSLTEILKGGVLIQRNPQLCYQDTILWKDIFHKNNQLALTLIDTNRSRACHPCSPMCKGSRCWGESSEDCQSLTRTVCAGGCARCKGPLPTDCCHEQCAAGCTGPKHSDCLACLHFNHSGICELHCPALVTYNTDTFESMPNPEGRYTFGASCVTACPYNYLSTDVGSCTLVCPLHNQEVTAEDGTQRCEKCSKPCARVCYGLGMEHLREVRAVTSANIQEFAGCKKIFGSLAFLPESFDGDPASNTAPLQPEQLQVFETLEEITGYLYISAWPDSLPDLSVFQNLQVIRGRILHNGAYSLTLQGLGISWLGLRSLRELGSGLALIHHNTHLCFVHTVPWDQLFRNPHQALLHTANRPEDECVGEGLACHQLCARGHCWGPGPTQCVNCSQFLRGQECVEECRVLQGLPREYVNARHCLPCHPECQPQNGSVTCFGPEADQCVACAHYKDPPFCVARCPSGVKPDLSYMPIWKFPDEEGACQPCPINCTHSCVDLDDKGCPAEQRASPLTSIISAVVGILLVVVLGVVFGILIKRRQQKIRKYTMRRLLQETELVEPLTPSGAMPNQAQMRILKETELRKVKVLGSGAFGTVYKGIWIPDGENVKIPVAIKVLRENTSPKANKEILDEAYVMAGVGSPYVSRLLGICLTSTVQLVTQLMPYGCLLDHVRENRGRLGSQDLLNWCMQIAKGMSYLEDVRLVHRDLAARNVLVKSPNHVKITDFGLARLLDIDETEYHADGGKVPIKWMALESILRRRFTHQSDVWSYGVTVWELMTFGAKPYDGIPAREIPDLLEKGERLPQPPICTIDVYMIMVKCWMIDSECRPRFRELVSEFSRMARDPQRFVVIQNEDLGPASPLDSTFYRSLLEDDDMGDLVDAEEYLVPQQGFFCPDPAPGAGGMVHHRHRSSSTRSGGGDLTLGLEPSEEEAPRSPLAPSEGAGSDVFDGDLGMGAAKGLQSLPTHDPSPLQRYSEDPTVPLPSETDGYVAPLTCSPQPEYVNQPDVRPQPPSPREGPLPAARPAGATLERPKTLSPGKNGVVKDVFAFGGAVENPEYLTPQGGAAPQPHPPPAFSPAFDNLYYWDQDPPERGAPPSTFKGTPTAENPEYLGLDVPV
Chain of EGFR^WT kinase (P00533 25-1210): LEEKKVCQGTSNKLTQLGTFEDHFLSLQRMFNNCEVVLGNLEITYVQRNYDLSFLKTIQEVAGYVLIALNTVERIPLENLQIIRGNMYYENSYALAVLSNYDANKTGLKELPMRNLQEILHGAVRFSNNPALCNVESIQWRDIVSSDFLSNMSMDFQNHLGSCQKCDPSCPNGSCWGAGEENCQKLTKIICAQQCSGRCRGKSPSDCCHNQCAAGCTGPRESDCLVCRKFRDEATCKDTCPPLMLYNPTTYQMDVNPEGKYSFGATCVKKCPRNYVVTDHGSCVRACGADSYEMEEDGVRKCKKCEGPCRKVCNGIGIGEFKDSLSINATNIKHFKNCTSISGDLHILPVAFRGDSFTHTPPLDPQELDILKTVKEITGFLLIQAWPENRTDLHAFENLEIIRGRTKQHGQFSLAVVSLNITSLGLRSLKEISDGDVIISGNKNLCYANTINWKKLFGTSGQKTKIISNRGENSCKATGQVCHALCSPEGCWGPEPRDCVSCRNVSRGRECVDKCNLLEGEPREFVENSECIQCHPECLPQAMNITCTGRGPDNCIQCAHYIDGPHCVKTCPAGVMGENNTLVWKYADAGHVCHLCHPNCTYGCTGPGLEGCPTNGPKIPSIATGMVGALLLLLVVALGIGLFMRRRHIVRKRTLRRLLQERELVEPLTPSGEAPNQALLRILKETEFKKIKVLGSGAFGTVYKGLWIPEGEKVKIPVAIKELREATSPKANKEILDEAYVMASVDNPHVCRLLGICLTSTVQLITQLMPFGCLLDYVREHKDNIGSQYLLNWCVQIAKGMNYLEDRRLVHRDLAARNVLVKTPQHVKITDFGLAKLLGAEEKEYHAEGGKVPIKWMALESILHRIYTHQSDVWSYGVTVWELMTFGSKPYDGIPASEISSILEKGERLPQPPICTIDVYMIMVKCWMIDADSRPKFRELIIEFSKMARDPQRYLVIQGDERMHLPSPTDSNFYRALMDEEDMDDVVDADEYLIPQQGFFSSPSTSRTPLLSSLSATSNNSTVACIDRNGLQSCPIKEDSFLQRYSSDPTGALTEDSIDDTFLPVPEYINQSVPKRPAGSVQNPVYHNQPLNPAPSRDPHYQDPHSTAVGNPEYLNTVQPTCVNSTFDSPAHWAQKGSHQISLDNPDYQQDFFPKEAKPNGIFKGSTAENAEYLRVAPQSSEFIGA

As to `CN1CCC[C@@H]1/C=C/C(=O)Nc1ccc2ncnc(Nc3ccc(OCc4ccccn4)c(Cl)c3)c2c1OCCF` [Example 7, (R,E)-N-(4-((3-chloro-4-(pyridin-2-ylmethoxy)phenyl)amino)-5-(2-fluoroethoxy)quinazolin-6-yl)-3-(1-methylpyrrolidin-2-yl)acrylamide], the pIC50 at EGFR^WT kinase and on HER2 kinase was above 8.00 throughout. Further, in assay [1], the GI50 is 1 to 5 nM.

As for `CN1CCC[C@@H]1/C=C/C(=O)Nc1ccc2ncnc(Nc3ccc(OCc4ccccn4)c(Cl)c3)c2c1OC1CC1` [Example 37, (R,E)-N-(4-((3-chloro-4-(pyridin-2-ylmethoxy)phenyl)amino)-5-cyclopropoxyquinazolin-6-yl)-3-(1-methylpyrrolidin-2-yl)acrylamide], the pIC50 is 7.00 to 8.00 at EGFR^WT kinase and above 8.00 on HER2 kinase. For the same compound, in assay [1], the GI50 lay in the range of 1 to 5 nM.

For `COCCCNc1c(NC(=O)/C=C/[C@H]2CCCN2C)ccc2ncnc(Nc3ccc(OCc4ccccn4)c(Cl)c3)c12` [Example 32, (R,E)-N-(4-((3-chloro-4-(pyridin-2-ylmethoxy)phenyl)amino)-5-((3-methoxypropyl)amino)quinazolin-6-yl)-3-(1-methylpyrrolidin-2-yl)acrylamide], the pIC50 against EGFR^WT kinase was 6.00 to 7.00; against HER2 kinase, above 8.00. In addition, the GI50 in assay [1] fell in the range of 1 to 5 nM.

With `CCOc1c(NC(=O)/C=C/[C@H]2CCCN2C)ccc2ncnc(Nc3ccc(OCc4ccccn4)c(F)c3)c12` [Example 21, (R,E)-N-(5-ethoxy-4-((3-fluoro-4-(pyridin-2-ylmethoxy)phenyl)amino)quinazolin-6-yl)-3-(1-methylpyrrolidine-2-yl)acrylamide], the pIC50 against EGFR^WT kinase and against HER2 kinase was above 8.00 in each case. In addition, in assay [1], the GI50 was in the range of 1 to 5 nM.

For `[2H]C([2H])([2H])Oc1c(NC(=O)/C=C/[C@H]2CCCN2CC)ccc2ncnc(Nc3ccc(OCc4ccccn4)c(Cl)c3)c12` [Example 34, (R,E)-N-(4-((3-chloro-4-(pyridin-2-ylmethoxy)phenyl)amino)-5-(methoxy-d3)quinazolin-6-yl)-3-(1-ethylpyrrolidin-2-yl)acrylamide], the pIC50 at EGFR^WT kinase and at HER2 kinase was above 8.00 throughout. Also, the GI50 in assay [1] lay in the range of 1 to 5 nM.

With `COc1c(NC(=O)/C=C/CN(C)C2CCC2)ccc2ncnc(Nc3ccc(OCc4ccccn4)c(Cl)c3)c12` [Example 3, (E)-N-(4-((3-chloro-4-(pyridin-2-ylmethoxy)phenyl)amino)-5-methoxyquinazolin-6-yl)-4-(cyclobutyl(methyl)amino)but-2-enamide], the negative logarithm of the IC50 (pIC50) against EGFR^WT kinase and against HER2 kinase was above 8.00 each time. The GI50 in assay [1] is 1 to 5 nM.

As for `COc1cccc(COc2ccc(Nc3ncnc4ccc(NC(=O)/C=C/[C@H]5CCCN5C)c(OC)c34)cc2Cl)n1` [Example 27, (R,E)-N-(4-((3-chloro-4-((6-methoxypyridin-2-yl)methoxy)phenyl)amino)-5-methoxyquinazolin-6-yl)-3-(1-methylpyrrolidin-2-yl)acrylamide], the results for the pIC50 against EGFR^WT kinase and on HER2 kinase were 7.00 to 8.00 and above 8.00, respectively. Also, the GI50 in assay [1] was 1 to 5 nM.

For the compound `[2H]C([2H])([2H])Oc1c(NC(=O)/C=C/CN(C)C)ccc2ncnc(Nc3ccc(OCc4ccccn4)c(Cl)c3)c12` [Example 36, (E)-N-(4-((3-chloro-4-(pyridin-2-ylmethoxy)phenyl)amino)-5-(methoxy-d3)quinazolin-6-yl)-4-(dimethylamino)but-2-enamide], the pIC50 at EGFR^WT kinase and against HER2 kinase was above 8.00 in each case. Also, in assay [1], the GI50 fell in the range of 1 to 5 nM.

Consider `CCOc1c(NC(=O)/C=C/[C@H]2CCCN2CC)ccc2ncnc(Nc3ccc(OCc4ccccn4)c(Cl)c3)c12` [Example 20, (R,E)-N-(4-((3-chloro-4-(pyridin-2-ylmethoxy)phenyl)amino)-5-ethoxyquinazolin-6-yl)-3-(1-ethylpyrrolidin-2-yl)acrylamide], for which the negative-log IC50 (pIC50) against EGFR^WT kinase and against HER2 kinase was above 8.00 throughout. For the same compound, the GI50 in assay [1] lay in the range of 1 to 5 nM.

As to `CN1CCC[C@@H]1/C=C/C(=O)Nc1ccc2ncnc(Nc3ccc(OCc4ccccn4)c(Cl)c3)c2c1OCC1CC1` [Example 38, (R,E)-N-(4-((3-chloro-4-(pyridin-2-ylmethoxy)phenyl)amino)-5-(cyclopropylmethoxy)quinazolin-6-yl)-3-(1-methylpyrrolidone-2-yl)acrylamide], the pIC50 at EGFR^WT kinase and against HER2 kinase was above 8.00 throughout. The GI50 in assay [1] was 1 to 5 nM.

As to `CN1CCC[C@@H]1/C=C/C(=O)Nc1ccc2ncnc(Nc3ccc(OCc4ccccn4)c(Cl)c3)c2c1OCCC(F)(F)F` [Example 12, (R,E)-N-(4-((3-chloro-4-(pyridin-2-ylmethoxy)phenyl)amino)-5-(3,3,3-trifluoropropoxy)quinazolin-6-yl)-3-(1-methylpyrrolidin-2-yl)acrylamide], the negative logarithm of the IC50 (pIC50) at EGFR^WT kinase and against HER2 kinase was above 8.00 throughout. Moreover, in assay [1], the GI50 lay in the range of 1 to 5 nM.

As to `CN1CCC[C@@H]1/C=C/C(=O)Nc1ccc2ncnc(Nc3ccc(OCc4ccccn4)c(Cl)c3)c2c1OC1CCOC1` (stereo partly drawn) [Example 40, (E)-N-(4-((3-chloro-4-(pyridin-2-ylmethoxy)phenyl)amino)-5-((tetrahydrofuran-3-yl)oxy)quinazolin-6-yl)-3-((R)-1-methylpyrrolidin-2-yl)acrylamide], the pIC50 against EGFR^WT kinase and on HER2 kinase was above 8.00 in each case. Moreover, the GI50 in assay [1] lay in the range of 1 to 5 nM.

For the compound `CN1CCC[C@@H]1/C=C/C(=O)Nc1ccc2ncnc(Nc3ccc(Oc4ccccc4)cc3)c2c1OCCO` [Example 31, (R,E)-N-(5-(2-hydroxyethoxy)-4-((4-phenyloxyphenyl)amino)quinazolin-6-yl)-3-(1-methylpyrrolidin-2-yl)acrylamide], the pIC50 against EGFR^WT kinase and at HER2 kinase was above 8.00 throughout. Further, the GI50 in assay [1] was in the range of 1 to 5 nM.

For the compound `CCOc1c(NC(=O)/C=C/[C@H]2CCCN2CC)ccc2ncnc(Nc3ccc(OCc4cccc(F)c4)c(Cl)c3)c12` [Example 19, (R,E)-N-(4-((3-chloro-4-(3-fluorobenzyloxy)phenyl)amino)-5-ethoxyquinazolin-6-yl)-3-(1-ethylpyrrolidin-2-yl)acrylamide], the pIC50 against EGFR^WT kinase and against HER2 kinase was above 8.00 each time. The GI50 in assay [1] was 1 to 5 nM.
